Publication PMC9873282, “Design, synthesis and evaluation of quinoline-O-carbamate derivatives as multifunctional agents for the treatment of Alzheimer’s disease” (Journal of Enzyme Inhibition and Medicinal Chemistry, 2023)

Assays:
eeAChE [1] = molecular target: T1, eeAChE (Electrophorus electricus, UniProt O42275); experiment: biochemical; set-up: species or system electric eel; settings: AChE from electric eel; read-out: IC50 ± SD eeAChE
T1 construct: eeAChE, from the electric eel; purchased Sigma Aldrich; host or cells: electric eel (natural source)
T1 sequence (O42275 24-633): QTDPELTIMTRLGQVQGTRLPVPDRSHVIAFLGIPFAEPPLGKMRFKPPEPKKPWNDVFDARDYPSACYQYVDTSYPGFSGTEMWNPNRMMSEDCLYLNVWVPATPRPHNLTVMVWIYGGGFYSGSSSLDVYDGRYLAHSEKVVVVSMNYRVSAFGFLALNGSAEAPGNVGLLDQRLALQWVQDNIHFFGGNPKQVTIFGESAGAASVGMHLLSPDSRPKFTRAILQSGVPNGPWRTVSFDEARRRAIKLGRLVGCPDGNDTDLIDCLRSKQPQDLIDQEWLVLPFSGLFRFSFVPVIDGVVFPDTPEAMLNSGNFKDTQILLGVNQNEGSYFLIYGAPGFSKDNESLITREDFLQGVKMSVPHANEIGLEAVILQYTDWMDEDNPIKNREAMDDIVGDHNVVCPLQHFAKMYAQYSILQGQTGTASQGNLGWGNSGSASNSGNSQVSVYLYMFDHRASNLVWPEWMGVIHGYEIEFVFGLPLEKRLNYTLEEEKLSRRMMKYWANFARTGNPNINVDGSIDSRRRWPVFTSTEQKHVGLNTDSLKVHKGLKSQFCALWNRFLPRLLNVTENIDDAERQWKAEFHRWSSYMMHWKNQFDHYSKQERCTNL
Experimental: (§1) The inhibitory activities of the synthesised compounds against eeAChE (from electric eel) and eqBuChE (from equine serum) were tested by the modified Ellman’s method[26]^,[27]. […] The determination of AChE and BuChE inhibitory potency of the synthesised compounds were evaluated by Ellman assay, the detailed procedure referred to our previous work[26]^,[27].

eqBuChE = molecular target: T2, eqBuChE (Equus caballus, UniProt P81908); experiment: biochemical; set-up: species or system equine
T2 construct: eqBuChE, from equine serum; purchased Sigma Aldrich; host or cells: equine serum (natural source)
T2 sequence (P81908 whole entry): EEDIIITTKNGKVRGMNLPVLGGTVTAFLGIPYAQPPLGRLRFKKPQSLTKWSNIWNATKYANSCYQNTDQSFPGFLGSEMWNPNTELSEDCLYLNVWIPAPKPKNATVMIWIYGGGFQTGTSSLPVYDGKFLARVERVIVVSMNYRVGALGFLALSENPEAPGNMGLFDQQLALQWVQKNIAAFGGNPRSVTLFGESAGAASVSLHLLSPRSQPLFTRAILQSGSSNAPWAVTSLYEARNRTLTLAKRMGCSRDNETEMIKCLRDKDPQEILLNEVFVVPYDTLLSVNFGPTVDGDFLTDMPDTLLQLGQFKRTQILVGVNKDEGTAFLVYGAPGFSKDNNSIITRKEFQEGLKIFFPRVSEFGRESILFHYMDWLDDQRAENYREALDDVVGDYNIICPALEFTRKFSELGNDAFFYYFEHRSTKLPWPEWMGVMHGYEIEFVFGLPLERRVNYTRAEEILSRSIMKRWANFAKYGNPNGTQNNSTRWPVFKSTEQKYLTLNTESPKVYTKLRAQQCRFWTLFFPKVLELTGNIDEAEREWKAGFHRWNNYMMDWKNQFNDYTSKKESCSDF
Experimental: as §1

BV-2 cells = experiment: Cytotoxicity on BV-2 cells (CCK8 assay); format: cell-based; settings: compounds at 2 µM
Experimental: (§2) Firstly, the cytotoxicity of compounds 3a, 3c, 3e, 3f, 3k, 3m and 3n were tested using CCK8 assay.
BV-2 cells were cultured in DMEM containing 10% foetal bovine serum, 100 U/mL penicillin, 100 U/mL streptomycin, and 1% nonessential amino acid at 37 °C with 5% CO2.
BV-2 cells in logarithmic growth stage were digested and centrifuged, and then resuspended in DMEM medium containing 1% penicillin-streptomycin and 10% foetal bovine serum. The cells was adjusted to 1.2 × 10^4 cells/well, and then seeded evenly in 96-well cell culture plates. The cells were incubated for 36 h at 37 °C with 5% CO2. After incubation, the cells were added to different concentrations (10 and 2 µM) of tested compounds, and incubated for 24 h at 37 °C with 5% CO2. Then, 10 µL CCK-8 solution was added to each well, and incubated for another 1 h at 37 °C with 5% CO2. The OD values were tested at […]. The cell viability (%) = {(ODdrug−ODblank)}/{(ODcontrol−ODblank)} × 100%.

IL-6 = IL-6 production in LPS-stimulated BV-2 cells (ELISA); format: cell-based; settings: 1 µM and 2 µM; 1 µg/mL LPS 24 h
Experimental: as §2
(§3) BV-2 cells (2 × 10^5 cells/well) were seeded in a 24-well cell culture plates. The cells were divided into blank control group, model group (1 µg/mL LPS), LPS + 2 µM compound group, LPS + 1 µM compound group. Each drug group was pre-treated with corresponding concentration of drug solution for 8 h. After 8 h, the culture medium was aspirated out. Except for the blank control group, which was added with DMEM medium, the other groups were stimulated with 1 µg/mL LPS for 24 h. Then cell supernatant was aspirated and centrifuged at 3000 rpm for 3 min. The content of NO in cell culture supernatant was determined by Griess method, and the levels of cytokines IL-6 and IL-1β in cell culture supernatant were determined by IL-6 ELISA kit and IL-1β ELISA kit, respectively.

IL-1β = IL-1β production in LPS-stimulated BV-2 cells (ELISA); format: cell-based; settings: 1 µg/mL LPS 24 h
Experimental: as §2, §3

NO = NO release in LPS-stimulated BV-2 cells (Griess method); format: cell-based; settings: 1 µg/mL LPS 24 h
Experimental: as §2, §3

hAChE = molecular target: T3, hAChE (Homo sapiens, UniProt P22303); experiment: hAChE reversibility of inhibition (recovery after dilution); format: biochemical
T3 construct: hAChE, from human erythrocytes AChE; purchased Sigma Aldrich; host or cells: human erythrocytes (natural source)
T3 sequence (P22303 32-617 isoform P22303-2 limits assumed): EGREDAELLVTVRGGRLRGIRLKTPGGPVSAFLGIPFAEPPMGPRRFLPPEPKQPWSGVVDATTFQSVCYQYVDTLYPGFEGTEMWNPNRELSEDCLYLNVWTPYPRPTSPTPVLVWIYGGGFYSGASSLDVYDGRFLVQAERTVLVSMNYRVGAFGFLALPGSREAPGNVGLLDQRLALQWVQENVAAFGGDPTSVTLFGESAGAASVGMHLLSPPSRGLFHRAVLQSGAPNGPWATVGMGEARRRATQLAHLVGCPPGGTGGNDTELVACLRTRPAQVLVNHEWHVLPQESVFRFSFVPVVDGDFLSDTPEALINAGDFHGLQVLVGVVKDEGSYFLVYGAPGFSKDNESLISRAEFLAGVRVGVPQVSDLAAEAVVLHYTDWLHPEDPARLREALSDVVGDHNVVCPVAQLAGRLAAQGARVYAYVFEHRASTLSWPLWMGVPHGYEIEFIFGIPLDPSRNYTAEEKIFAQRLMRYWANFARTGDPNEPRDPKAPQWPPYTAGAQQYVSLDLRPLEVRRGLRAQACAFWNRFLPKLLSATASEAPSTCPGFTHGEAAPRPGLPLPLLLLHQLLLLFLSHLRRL

hBuChE = molecular target: T4, hBuChE (Homo sapiens, UniProt P06276); experiment: hBuChE reversibility of inhibition (recovery after dilution); format: biochemical
T4 construct: hBuChE, human serum BuChE; purchased Sigma Aldrich; host or cells: human serum (natural source)
T4 sequence (P06276 29-602): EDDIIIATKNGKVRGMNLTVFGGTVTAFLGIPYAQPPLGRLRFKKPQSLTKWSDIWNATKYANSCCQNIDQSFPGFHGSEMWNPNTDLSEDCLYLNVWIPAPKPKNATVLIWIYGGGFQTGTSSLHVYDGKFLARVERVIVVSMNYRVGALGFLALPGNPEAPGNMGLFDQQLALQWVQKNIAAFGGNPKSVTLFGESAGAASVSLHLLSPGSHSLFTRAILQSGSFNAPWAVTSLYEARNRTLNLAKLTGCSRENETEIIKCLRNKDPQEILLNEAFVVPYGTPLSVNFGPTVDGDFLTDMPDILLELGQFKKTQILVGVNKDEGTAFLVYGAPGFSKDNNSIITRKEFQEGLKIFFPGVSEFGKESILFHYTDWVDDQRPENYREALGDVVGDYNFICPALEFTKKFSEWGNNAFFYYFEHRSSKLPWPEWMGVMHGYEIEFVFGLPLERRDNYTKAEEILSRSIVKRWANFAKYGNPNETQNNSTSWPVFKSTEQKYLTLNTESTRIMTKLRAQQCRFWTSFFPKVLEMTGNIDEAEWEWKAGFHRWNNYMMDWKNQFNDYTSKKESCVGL

eeAChE [2] = molecular target: T1, eeAChE; experiment: Enzyme kinetic study (Lineweaver-Burk) of eeAChE inhibition; format: biochemical, electric eel
Excerpt: In order to determine the mechanism of quinoline-O-carbamate derivatives, the representative compound 3f was chose to perform Lineweaver-Burk double reciprocal plot by plotting the initial velocities of the substrate at y-axis and increasing concentrations substrate at x-axis[27].
Figure 7. Enzyme kinetic study on the mechanism of eeAChE inhibition by compound 3f. (A) Overlaid Lineweaver-Burk reciprocal plots of AChE initial velocity at increasing acetylthiocholine concentration in the absence and in the presence of 3f were determined.

PC12 cells = experiment: Cytotoxicity on PC12 cells; format: cell-based; settings: at concentration below 40 µM
Experimental: The neuroprotective effect of compounds 3a, 3c, 3e, 3f, 3k, 3m, and 3n on Aβ25–35-induced PC12 cells injury were evaluated using CCK-8 assay. […] Furthermore, as shown in Figure 12(B), when PC12 cells were exposed to 25 µM Aβ25-35, the cell viability sharply declined to 57.3% (p < 0.01) compared with untreated group.
The PC12 cells during the logarithmic growth phase were digested and centrifuged with pancreatic enzyme solution, the cells were resuspended by adding the prepared media solution, and piped evenly with a pipette to seed in a 96-well cell culture plate (cell concentration adjusted to 2.0 × 10^4 cell·mL^−1). Each well was added 100 µL complete medium was added to each well and incubated at 37 °C and 5% CO2 for 24 h.

[3] = test system: AlCl3-induced zebrafish AD model; experiment: Behavioural assay in AlCl3-induced zebrafish AD model; format: in vivo
AChE = AChE activity in AlCl3-induced zebrafish AD model tissue; format: in vivo
[4] = alternating dark light stimuli, 0.08 µM
[5] = alternating dark light stimuli, 0.16 µM
[6] = alternating dark light stimuli, 0.32 µM

CCN(CC)C(=O)Oc1cccc2ncccc12 [Compound 3f, Quinolin-5-yl diethylcarbamate]
IC50 (eeAChE [1]): 1.3 ± 0.02 µM | IC50 (eqBuChE; BuChE from equine serum, read-out: IC50 ± SD eqBuChE): 0.81 ± 0.06 µM | SI = IC50 (AChE)/IC50 (BuChE) (eqBuChE; eeAChE/eqBuChE): 1.6 | cell viability of BV-2 cells (BV-2 cells): did not show obvious change | levels of IL-6 compared with model group (IL-6): significantly decreased | levels of IL-1β compared with model group (IL-1β): significantly decreased | release volume of NO (NO): significantly decreased | reversibility of hAChE inhibition (hAChE): reversible hAChE inhibitor | hAChE activity restored (hAChE; 0.1 × IC50, at 120 min): 94.7% | reversibility of hBuChE inhibition (hBuChE): reversible hBuChE inhibitor | hBuChE activity (% control) (hBuChE; 0.1*IC50, diluted): 53.6 % control | hBuChE activity restored (hBuChE; 0.1 × IC50, 120 min): 70.7% | hBuChE activity restored (hBuChE; 0.1 × IC50, 240 min): 95.6% | hBuChE activity (% control) (hBuChE; 1*IC50, diluted): 51.4 % control | hBuChE activity (% control) (hBuChE; 1*IC50, undiluted): 48.8 % control | type of AChE inhibition (eeAChE [2]; Lineweaver-Burk plot): mixed-type | Ki (eeAChE [2]; replot of slope versus concentration, read-out: inhibition constant Ki): 1.73 µM | cytotoxicity on PC12 cells (PC12 cells): did not show any cytotoxicity | total velocity ([3]; 0.16 µM, compared with donepezil): could improve AlCl3-induced zebrafish AD model | distance moved [3, 4]: 1029.2 cm | velocity [3, 4]: 17.5 cm/min | distance moved [3, 5]: 1241.5 cm | velocity [3, 5]: 22.3 cm/min | distance moved [3, 6]: 1022.8 cm | velocity [3, 6]: 17.0 cm/min | distance moved ([3]; dark environment, 0.08 µM): 607.3 cm | velocity ([3]; dark environment, 0.08 µM): 21.3 cm/min | distance moved ([3]; dark environment, 0.16 µM): 709.4 cm | velocity ([3]; dark environment, 0.16 µM): 24.7 cm/min | distance moved ([3]; dark environment, 0.32 µM): 521.7 cm | velocity ([3]; dark environment, 0.32 µM): 17.3 cm/min | optimal dose ([3]; dyskinesia and reaction capacity, ACh levels): 0.16 µM | velocity ([3]; light condition, 0.08 µM): 14.7 cm/min | velocity ([3]; light condition, 0.16 µM): 19.3 cm/min | velocity ([3]; light condition, 0.32 µM): 17.6 cm/min | AChE activity (AChE; 0.08 µM): 98095.7 nmol/min/g | AChE activity (AChE; 0.16 µM): 64663.2 nmol/min/g | AChE activity (AChE; 0.32 µM): 102433.6 nmol/min/g
